The text below walks through data of patent US5545640A, “Protease inhibiting succinic acid derivatives” (Bio-Mega/Boehringer Ingeleheim Research Inc., priority 1995, dated 1996).

The target in assay [1] is T1, HIV protease (Human immunodeficiency virus type 1 group M subtype B, UniProt P04585).
T1 construct: an HIV-encoded enzyme known as HIV protease
Nature of the assay: biochemical. Particulars: read-out: IC50 (concentration causing 50% inhibition of HIV protease). The source says: The procedure is based on the capacity of the test compound to inhibit enzymatic cleavage by HIV protease of a decapeptide (the substrate) having an amino acid sequence which includes a known HIV protease cleavage site of a HIV polyprotein; see H. G. Krausslich et al., Proc. Natl. Acad. Sci. USA, 86, 807 (1989).
Anderson, S. Rakhit and C. Yoakim in the European patent application 443 560, published Aug. 28, 1991.

For assay [2], the system named is HIV (H9/HTLV-IIIB stock) in C8166 cells. Briefly: Cell culture assay: inhibition of syncytia formation in HIV-infected C8166 cells (antiviral, anti-HIV effect). The format is cell-based, HIV (HTLV-IIIB); human T4 cell line. Particulars: read-out: EC50 (concentration causing 50% inhibition of syncytia formation). From the text:
Typical of such procedures are those described by S. Harada and N. Yamamoto, Jpn. J. Cancer Res. (Gann), 76, 432 (1985), and S. Harada et al., Science, 229, 563 (1985). An assay based on the latter procedures is described in the examples hereinafter.
In addition, Tables 1 to 8 list the results for exemplified compounds of formula 1 when assayed for antiviral (anti-HIV) effects according to the following protocol which is based on a cell culture assay previously described by Harada et al., supra. Transformed cells are used because of the rapidity with which HIV will replicate in the cells.
1. The test compound is dissolved in dimethylsulfoxide to a concentration of 5 mg/mL. The resultant solution .can be stored at 4° until use.
2. The resultant solution is diluted in RPMI 1640 (Gibco Laboratories, St. Lawrence, Mass., USA) to four times (4×) the final concentration which is to be tested. Once diluted in RPMI 1640, the solution is used in the cell culture assay within 4 h.
3. The latter solution (50 μL) is added to triplicate wells of a 96 well flat bottomed microtiter plate. RPMI (50 μL) also is added to control wells.
4. C8166 cells (5×10^4) in 50 μL of HEPES-buffered RPMI 1640 (pH=7.2), 10% heat inactivated fetal calf serum (FCS), […] gentamicin (complete media) are added to all wells.
5. Fifty times TCID50 of H9/HTLV-IIIB stock (stored in liquid nitrogen as cell culture supernatant in 50% FCS) in 100 μL of complete media is added to all wells. The infectious titer of the virus stocks is as previously determined by end point dilution on C8166 cells. The titer of stocks are stable for 6-12 months when stored at -193°.
6. Microtiter plates are then placed on level shelves of a 37°, 5% CO2 humidified incubator for 72 h.
7. Plates are then removed and centers of syncytia are counted in each well by low power phase contrast light microscopy. […] Control wells should have between 25 and 75 centers of syncytia per well.
8. Percent inhibition of syncytia formation is calculated by the formula: [formula]
The concentration of the test compound which causes a 50% inhibition of syncytia formation, i.e. the EC50, is determined by using the technique of serial dilution of the working solution at step 3 and graphically plotting the observed percent inhibition of syncytia formation against the various concentrations of the test compound.
In the following tables, assay results are listed for the exemplified compounds from the aforementioned recombinant HIV protease HPLC assay under the heading IC50 (nM) and from the cell culture assay under the heading EC50 (nM). Note that for some of the compounds listed in tables, the EC50 's have not been determined (ND).

The mark [3] stands for this setting: recombinant HIV protease, decapeptide substrate, HPLC assay.
The mark [4] stands for this setting: Human immunodeficiency virus 1, C8166 cells, H9/HTLV-IIIB, 50 times TCID50, 72 h, 37°.

Read-outs that look alike come from different tables or passages of the source.

Turning to `CCC(CC)NC(=O)C[C@@H](C(=O)NC[C@@H](O)[C@H](Cc1ccccc1)NC(=O)[C@H](CC(N)=O)NC(=O)C=Cc1ccccc1)C(C)(C)C` [Entry 17], the IC50 in assay [1] (setting [3]) is 0.007 µM. In addition, the EC50 in assay [2] (setting [4]) worked out at 1.4 µM.

On to `CCC(CC)NC(=O)C[C@@H](C(=O)NC[C@@H](O)[C@H](Cc1ccccc1)NC(=O)[C@H](CC(N)=O)NC(=O)c1cc2ccccc2cn1)C(C)(C)C` [Entry 18], for which the IC50 in assay [1] (setting [3]) was 0.005 µM. For the same compound, the EC50 in assay [2] (setting [4]) stood at 0.22 µM.

With `CCC(CC)NC(=O)C[C@@H](C(=O)NC[C@@H](O)[C@H](Cc1ccccc1)NC(=O)[C@H](CC(N)=O)NC(=O)OCc1ccccc1)C(C)(C)C` [Entry 20], the IC50 in assay [1] (setting [3]) was found to be 0.005 µM. Besides, the EC50 in assay [2] (setting [4]) turned out to be 0.48 µM.

For `CCC(CC)NC(=O)C[C@@H](C(=O)NC[C@@H](O)[C@H](Cc1ccccc1)NC(=O)[C@H](CC(N)=O)NC(=O)CCCc1ccccc1)C(C)(C)C` [Entry 21], the IC50 in assay [1] (setting [3]) was 0.005 µM. Besides, in assay [2] (setting [4]), the EC50 was 1.1 µM.

For the compound `CCC(CC)NC(=O)C[C@@H](C(=O)NC[C@@H](O)[C@H](Cc1ccccc1)NC(=O)[C@@H](NC(=O)c1ccc2ccccc2n1)[C@@H](C)O)C(C)(C)C` [Entry 23, N^1-(1-Ethylpropyl)-N^4 -{3(S)-{[N-(2-quinolylcarbonyl)threonyl]amino}-2(R)-hydroxy-4-phenylbutyl}-3(R)-tert-butylbutanediamide], the IC50 in assay [1] (setting [3]) came out at 0.004 µM. In assay [2] (setting [4]), the EC50 amounted to 0.052 µM.

For `CCC(CC)NC(=O)C[C@@H](C(=O)NC[C@@H](O)[C@H](Cc1ccccc1)NC(=O)[C@H](CC(N)=O)NC(=O)c1cc(OC)c2ccccc2n1)C(C)(C)C` [Entry 25], the IC50 in assay [1] (setting [3]) was determined as 0.004 µM. In addition, the EC50 in assay [2] (setting [4]) amounted to 0.164 µM.

For `CCC(CC)NC(=O)C[C@@H](C(=O)NC[C@@H](O)[C@H](Cc1ccccc1)NC(=O)[C@@H](NC(=O)c1cnc2ccccc2n1)[C@@H](C)O)C(C)(C)C` [Entry 26], in assay [1], the IC50 came to 0.004 µM. Moreover, the EC50 in assay [2] (setting [4]) stood at 0.065 µM.

For `CCC(CC)NC(=O)C[C@@H](C(=O)NC[C@@H](O)[C@H](Cc1ccccc1)NC(=O)[C@@H](NC(=O)c1ccc2ccccc2n1)C(C)(C)C)C(C)(C)C` [Entry 27], in assay [1] (setting [3]), the IC50 amounted to 0.004 µM. For the same compound, the EC50 in assay [2] (setting [4]) is 0.083 µM.

For the compound `CCC(CC)NC(=O)C[C@@H](C(=O)NC[C@@H](O)[C@H](Cc1ccccc1)NC(=O)[C@@H](NC(C)=O)C(C)C)C(C)(C)C` [Entry 28], the IC50 in assay [1] (setting [3]) came out at 0.004 µM. In addition, the EC50 in assay [2] (setting [4]) was 0.53 µM.

In the case of `CCC(CC)NC(=O)C[C@@H](C(=O)NC[C@@H](O)[C@H](Cc1ccccc1)NC(=O)[C@@H](NC(=O)c1ccc2ccccc2n1)C(C)C)C(C)(C)C` [Entry 29], the IC50 in assay [1] amounted to 0.003 µM. Also, the EC50 in assay [2] (setting [4]) stood at 0.052 µM.

Turning to `CCC(CC)NC(=O)C[C@@H](C(=O)NC[C@@H](O)[C@H](Cc1ccccc1)NC(=O)[C@@H](NC(=O)c1cnc2ccccc2n1)C(C)C)C(C)(C)C` [Entry 31], in assay [1], the IC50 is 0.003 µM. Moreover, in assay [2] (setting [4]), the EC50 is 0.025 µM.

For the compound `CCC(CC)NC(=O)C[C@@H](C(=O)NC[C@@H](O)[C@H](Cc1ccccc1)NC(=O)[C@@H](NC(=O)OCc1ccccc1)C(C)C)C(C)(C)C` [Entry 32], the IC50 in assay [1] (setting [3]) was found to be 0.003 µM. In addition, in assay [2] (setting [4]), the EC50 was found to be 0.063 µM.

`CCC(CC)NC(=O)C[C@@H](C(=O)NC[C@@H](O)[C@H](Cc1ccccc1)NC(=O)[C@@H](NC(=O)OCc1ccccc1)C(C)(C)C)C(C)(C)C` [Entry 34]: the IC50 in assay [1] (setting [3]) was 0.003 µM. Also, the EC50 in assay [2] (setting [4]) stood at 0.065 µM.

Regarding `CCC(CC)NC(=O)C[C@@H](C(=O)NC[C@@H](O)[C@H](Cc1ccccc1)NC(=O)[C@H](CC(N)=O)NC(=O)c1ccc2ccccc2n1)C(C)(C)C` [Entry 35], the IC50 in assay [1] (setting [3]) came out at 0.003 µM. Moreover, the EC50 in assay [2] (setting [4]) turned out to be 0.13 µM.

For the compound `CCC(CC)NC(=O)C[C@@H](C(=O)NC[C@@H](O)[C@H](Cc1ccccc1)NC(=O)[C@H](CC(N)=O)NC(=O)c1cnc2ccccc2n1)C(C)(C)C` [Entry 36], the IC50 in assay [1] (setting [3]) is 0.003 µM. In addition, the EC50 in assay [2] (setting [4]) was determined as 0.26 µM.

Take `CCC(CC)NC(=O)C[C@@H](C(=O)NC[C@@H](O)[C@H](Cc1ccccc1)NC(=O)[C@H](CC#N)NC(=O)c1ccc2ccccc2n1)C(C)(C)C` [Entry 37]: in assay [1] (setting [3]), the IC50 amounted to 0.003 µM. Further, in assay [2] (setting [4]), the EC50 came out at 0.034 µM.

Take `CCC(CC)NC(=O)C[C@@H](C(=O)NC[C@@H](O)[C@H](Cc1ccccc1)NC(=O)[C@H](CC(N)=O)NC(=O)OCCc1ccccc1)C(C)(C)C` [Entry 40]: the IC50 in assay [1] (setting [3]) turned out to be 0.004 µM. In addition, in assay [2] (setting [4]), the EC50 came to 0.57 µM.

As for `CCC(CC)NC(=O)C[C@@H](C(=O)NC[C@@H](O)[C@H](Cc1ccccc1)NC(=O)[C@@H](NC(=O)COc1ccccc1)[C@@H](C)O)C(C)(C)C` [Entry 41], the IC50 in assay [1] (setting [3]) was determined as 0.003 µM. Also, in assay [2] (setting [4]), the EC50 stood at 0.17 µM.

As to `CC(C)c1cccc(C(C)C)c1NC(=O)C[C@@H](C(=O)NC[C@@H](O)[C@H](Cc1ccccc1)NC(=O)[C@@H](NC(=O)c1ccc2ccccc2n1)[C@@H](C)O)C(C)(C)C` [Entry 42], the IC50 in assay [1] (setting [3]) is 0.019 µM. For the same compound, the EC50 in assay [2] (setting [4]) was 0.83 µM.

Consider `CCc1cccc(CC)c1NC(=O)C[C@@H](C(=O)NC[C@@H](O)[C@H](Cc1ccccc1)NC(=O)[C@@H](NC(=O)c1ccc2ccccc2n1)[C@@H](C)O)C(C)(C)C` [Entry 43], for which the IC50 in assay [1] (setting [3]) turned out to be 0.005 µM. Moreover, the EC50 in assay [2] (setting [4]) was determined as 0.03 µM.

As for `CCCC(CCC)NC(=O)C[C@@H](C(=O)NC[C@@H](O)[C@H](Cc1ccccc1)NC(=O)[C@H](CC(N)=O)NC(=O)c1ccc2ccccc2n1)C(C)(C)C` [Entry 44], the IC50 in assay [1] (setting [3]) was found to be 0.004 µM. For the same compound, in assay [2] (setting [4]), the EC50 turned out to be 0.057 µM.

With `CC(C)C(NC(=O)C[C@@H](C(=O)NC[C@@H](O)[C@H](Cc1ccccc1)NC(=O)[C@H](CC(N)=O)NC(=O)c1ccc2ccccc2n1)C(C)(C)C)C(C)C` [Entry 45], the IC50 in assay [1] (setting [3]) was 0.004 µM. Also, the EC50 in assay [2] (setting [4]) is 0.15 µM.

Take `Cc1cccc(C)c1NC(=O)C[C@@H](C(=O)NC[C@@H](O)[C@H](Cc1ccccc1)NC(=O)[C@@H](NC(=O)c1ccc2ccccc2n1)[C@@H](C)O)C(C)(C)C` [Entry 46]: the IC50 in assay [1] (setting [3]) was 0.002 µM. For the same compound, the EC50 in assay [2] (setting [4]) was 0.03 µM.

For the compound `CCC(CC)NC(=O)CC(C(=O)NC[C@@H](O)[C@H](Cc1ccccc1)NC(=O)[C@H](CC(N)=O)NC(=O)OCc1ccccc1)C(C)(C)C` (some centres unmarked) [Entry 49], the IC50 in assay [1] (setting [3]) came out at 0.013 µM. Moreover, the EC50 in assay [2] (Human immunodeficiency virus 1, IIIB, C8166, 72 h) amounted to 1.3 µM.

For the compound `CC(C)[C@H](NC(=O)OCc1ccccc1)C(=O)N[C@@H](Cc1ccccc1)[C@H](O)CNC(=O)C(CC(=O)NC(C)(C)C)C(C)(C)C` (some centres unmarked) [Entry 51], the IC50 in assay [1] worked out at 0.007 µM. The EC50 in assay [2] (setting [4]) was found to be 0.2 µM.

As for `CCC(CC)NC(=O)CC(C(=O)NC[C@@H](O)[C@H](Cc1ccccc1)NC(=O)[C@H](CC(N)=O)NC(=O)c1ccc2ccccc2n1)C(C)(C)C` (some centres unmarked) [Entry 52], the IC50 in assay [1] (setting [3]) stood at 0.006 µM. Moreover, in assay [2] (setting [4]), the EC50 stood at 0.13 µM.

Regarding `CCC(CC)NC(=O)CC(C(=O)NC[C@@H](O)[C@H](Cc1ccccc1)NC(=O)[C@@H](NC(=O)OCc1ccccc1)C(C)(C)C)C(C)(C)C` (some centres unmarked) [Entry 53], the IC50 in assay [1] (setting [3]) turned out to be 0.006 µM. The EC50 in assay [2] (setting [4]) turned out to be 0.09 µM.

Consider `CCC(CC)OC(=O)C[C@@H](C(=O)NC[C@@H](O)[C@H](Cc1ccccc1)NC(=O)[C@H](CC(N)=O)NC(=O)c1ccc2ccccc2n1)C(C)(C)C` [Entry 59, 3(R)-tert-butyl-4-{2(R)-hydroxy-4-phenyl-3(S)-{[N-(2-quinolylcarbonyl)asparaginyl]-amino}butylamino}-4-oxobutyric acid 1-ethylpropyl ester], for which the IC50 in assay [1] (setting [3]) was 0.007 µM. In addition, in assay [2] (setting [4]), the EC50 was 0.57 µM.
